Data published in patent publication US4252808A, “β-Lactam antibacterial agents, their use in pharmaceutical compositions, the process for their preparation and intermediates for use in that process” (Beecham Group Limited, priority 1978, dated 1981).
Values after ≈ are worked out from the molar mass of the structure shown. Where a name gives a salt, the structure may show the parent alone.

Tests used:
Type in all cases: cell-based
S. aureus 1517 [1] = experiment: MIC, serial dilution in nutrient agar with 5% horse blood (Table 1); details: Staphylococcus aureus, inoculum 0.001 ml undiluted broth culture
Method: (§1) | *Serial dilution in nutrient agar containing 5% horse blood, inoculum | 0.001 ml undiluted broth culture.

P. morganii = experiment: as above; details: Morganella morganii, inoculum 0.001 ml undiluted broth culture
Method: as §1

E. cloacae Nl [2] = experiment: as above; details: Enterobacter cloacae, inoculum 0.001 ml undiluted broth culture
Method: as §1

P. rettgeri = experiment: as above; details: Providencia rettgeri, inoculum 0.001 ml undiluted broth culture
Method: as §1

P. mirabilis C 977 [3] = experiment: as above; details: Proteus mirabilis, C977, inoculum 0.001 ml undiluted broth culture
Method: as §1

K. aerogenes A [4] = experiment: as above; details: Klebsiella aerogenes, inoculum 0.001 ml undiluted broth culture
Method: as §1

S. aureus Oxford [5] = experiment: as above; details: Staphylococcus aureus, inoculum 0.001 ml undiluted broth culture
Method: as §1

B. subtilis [6] = experiment: as above; details: Bacillus subtilis, inoculum 0.001 ml undiluted broth culture
Method: as §1

S. faecalis 1 [7] = experiment: as above; details: Enterococcus faecalis, inoculum 0.001 ml undiluted broth culture
Method: as §1

S. aureus Russell = experiment: as above; details: Staphylococcus aureus, inoculum 0.001 ml undiluted broth culture
Method: as §1

E. coli JT 4 = experiment: as above; details: Escherichia coli, JT4, inoculum 0.001 ml undiluted broth culture
Method: as §1

S. pyogenes CN 10 [8] = experiment: as above; details: Streptococcus pyogenes, CN10, inoculum 0.001 ml undiluted broth culture
Method: as §1

S. aureus 1517 [9] = experiment: MIC, serial dilution in DST agar with 10% horse blood (Table 2); details: Staphylococcus aureus, inoculum diluted 10^-2
Text: (§2) *Serial dilution in DST agar containing 10% horse blood, inoculum 0.001 m
(§3) broth culture diluted 10^-2 for Grampositive and 10^-4 for
(§4) Gramnegative organisms.

E. cloacae Nl [10] = experiment: as above; details: Enterobacter cloacae, inoculum diluted 10^-4
Text: as §2, §3, §4

P. mirabilis C 977 [11] = experiment: as above; details: Proteus mirabilis, C977, inoculum diluted 10^-4
Text: as §2, §3, §4

K. aerogenes A [12] = experiment: as above; details: Klebsiella aerogenes, inoculum diluted 10^-4
Text: as §2, §3, §4

E. coli 0111 = experiment: as above; details: Escherichia coli, inoculum diluted 10^-4
Text: as §2, §3, §4

B. subtilis [13] = experiment: as above; details: Bacillus subtilis, inoculum diluted 10^-2
Text: as §2, §3, §4

S. aureues Russell = experiment: as above; details: Staphylococcus aureus, inoculum diluted 10^-2
Text: as §2, §3, §4

S. faecalis 1 [14] = experiment: as above; details: Enterococcus faecalis, inoculum diluted 10^-2
Text: as §2, §3, §4

P. morganii 1580 = experiment: as above; details: Morganella morganii, inoculum diluted 10^-4
Text: as §2, §3, §4

P. rettgeri WM 16 = experiment: as above; details: Providencia rettgeri, WM16, inoculum diluted 10^-4
Text: as §2, §3, §4

S. pneumoniae CN 33 = experiment: as above; details: Streptococcus pneumoniae, CN33, inoculum diluted 10^-2
Text: as §2, §3, §4

S. pyogenes CN 10 [15] = experiment: as above; details: Streptococcus pyogenes, CN10, inoculum diluted 10^-2
Text: as §2, §3, §4

S. aureus Oxford [16] = experiment: as above; details: Staphylococcus aureus, inoculum diluted 10^-2
Text: as §2, §3, §4

| SMILES | MIC (S. aureus 1517 [1]) | MIC (P. morganii) | MIC (E. cloacae Nl [2]) | MIC (P. rettgeri) | MIC (P. mirabilis C 977 [3]) | MIC (K. aerogenes A [4]) | MIC (S. aureus Oxford [5]) | MIC (B. subtilis [6]) | MIC (S. faecalis 1 [7]) | MIC (S. aureus Russell) | MIC (E. coli JT 4) | MIC (S. aureus 1517 [9]) | MIC (E. cloacae Nl [10]) | MIC (P. mirabilis C 977 [11]) | MIC (K. aerogenes A [12]) | MIC (E. coli 0111) | MIC (B. subtilis [13]) | MIC (S. aureues Russell) | MIC (S. faecalis 1 [14]) | MIC (P. morganii 1580) | other results |
| --- | --- | --- | --- | --- | --- | --- | --- | --- | --- | --- | --- | --- | --- | --- | --- | --- | --- | --- | --- | --- | --- |
| CC1=C(C(=O)O)N2C(=O)[C@@H](NC(=O)Cn3ncnn3)[C@H]2n2nncc21 [Compound 47, (3aR,4S)-4,5-Dihydro-5-oxo-8-methyl-4-(2-tetrazolylacetamido)-3aH-azeto[1,2-a]v-triazolo[3,4-c]pyrimidine-7-carboxylic acid] | > 100 µg/mL | > 100 µg/mL | > 100 µg/mL | > 100 µg/mL | > 100 µg/mL | > 100 µg/mL | 2.5 µg/mL (≈ 7.24 µM) | 0.5 µg/mL (≈ 1.45 µM) | 50 µg/mL (≈ 145 µM) | 5 µg/mL (≈ 14.5 µM) | > 100 µg/mL | – | – | – | – | – | – | – | – | – | MIC (S. pyogenes CN 10 [8]): 1 µg/mL (≈ 2.9 µM) |
| CC1=C(C(=O)O)N2C(=O)[C@@H](NC(=O)[C@H](O)c3ccccc3)[C@H]2n2nncc21 [Compound 42, (3aR,4S) 4,5-Dihydro-5-oxo-8-methyl-4-D-mandelylamino-3aH-azeto[1,2-a]v-triazolo[3,4-c]pyrimidine-7-carboxylic acid] | > 100 µg/mL | 100 µg/mL (≈ 271 µM) | > 100 µg/mL | > 100 µg/mL | > 100 µg/mL | > 100 µg/mL | 25 µg/mL (≈ 67.7 µM) | 1 µg/mL (≈ 2.71 µM) | > 100 µg/mL | > 100 µg/mL | > 100 µg/mL | – | – | – | – | – | – | – | – | – | – |
| CCSCC(=O)NC1C(=O)N2C(C(=O)O)=C(C)c3cnnn3C12 [Compound 48, (3aR,4S)-4,5-Dihydro-5-oxo-8-methyl-4-ethylthioacetamido 3aH-azeto[1,2a]v-triazolo[3,4c]pyrimidine-7-carboxylic acid] | – | – | – | – | – | – | – | – | – | – | – | 25 µg/mL (≈ 74.1 µM) | > 100 µg/mL | 10 µg/mL (≈ 29.6 µM) | 50 µg/mL (≈ 148 µM) | 50 µg/mL (≈ 148 µM) | 0.2 µg/mL (≈ 0.593 µM) | 5 µg/mL (≈ 14.8 µM) | 25 µg/mL (≈ 74.1 µM) | 25 µg/mL (≈ 74.1 µM) | MIC (P. rettgeri WM 16): > 100 µg/mL; MIC (S. pneumoniae CN 33): 1 µg/mL (≈ 2.96 µM); MIC (S. pyogenes CN 10 [15]): 0.5 µg/mL (≈ 1.48 µM) |
| CO/N=C(\C(=O)N[C@@H]1C(=O)N2C(C(=O)O)=C(C)c3cnnn3[C@H]12)c1ccco1 [Compound 50, (3aR,4R)-4,5-Dihydro-5-oxo-8-methyl-4-[(2-methoxyimino-2-fur-2'-yl)acetamido]-3aH-azeto[1,2-a]v-triazolo[3,4-c]pyrimidine-7-carboxylic acid] | – | – | – | – | – | – | – | – | – | – | – | 100 µg/mL (≈ 259 µM) | > 100 µg/mL | 50 µg/mL (≈ 129 µM) | 100 µg/mL (≈ 259 µM) | 100 µg/mL (≈ 259 µM) | 5 µg/mL (≈ 12.9 µM) | 25 µg/mL (≈ 64.7 µM) | > 100 µg/mL | 100 µg/mL (≈ 259 µM) | MIC (P. rettgeri WM 16): > 100 µg/mL; MIC (S. pneumoniae CN 33): 10 µg/mL (≈ 25.9 µM); MIC (S. pyogenes CN 10 [15]): 1 µg/mL (≈ 2.59 µM) |
| Cc1nnc(SCC2=C(C(=O)O)N3C(=O)[C@@H](NC(=O)Cc4cccs4)[C@H]3n3nncc32)s1 [Compound 60, (3aR,4S) 4,5-Dihydro-5-oxo-8-[5-methyl(1,3,4-thiadiazol-2-yl)thiomethyl]-4-(2-thienylacetamido)-3aH-azeto[1,2-a]-v-triazolo[3,4-c]pyrimidine-7-carboxylic acid] | > 100 µg/mL | > 100 µg/mL | > 100 µg/mL | > 100 µg/mL | > 100 µg/mL | > 100 µg/mL | > 100 µg/mL | 50 µg/mL (≈ 102 µM) | > 100 µg/mL | > 100 µg/mL | > 100 µg/mL | 100 µg/mL (≈ 204 µM) | > 100 µg/mL | > 100 µg/mL | > 100 µg/mL | > 100 µg/mL | 5 µg/mL (≈ 10.2 µM) | 25 µg/mL (≈ 51.1 µM) | 25 µg/mL (≈ 51.1 µM) | > 100 µg/mL | MIC (S. pyogenes CN 10 [8]): > 100 µg/mL; MIC (P. rettgeri WM 16): > 100 µg/mL; MIC (S. pneumoniae CN 33): 0.5 µg/mL (≈ 1.02 µM); MIC (S. pyogenes CN 10 [15]): 2.5 µg/mL (≈ 5.11 µM) |
| CC1=C(C(=O)O)N2C(=O)[C@@H](NC(=O)CC#N)[C@H]2n2nncc21 [Compound 49, (3aR,4S)-4,5-Dihydro-5-oxo-8-methyl-4-cyanoacetamido 3aH-azeto[1,2a]v-triazolo[3,4-c]pyrimidine-7-carboxylic acid] | – | – | – | – | – | – | – | – | – | – | – | 100 µg/mL (≈ 331 µM) | > 100 µg/mL | 50 µg/mL (≈ 165 µM) | 100 µg/mL (≈ 331 µM) | 100 µg/mL (≈ 331 µM) | 2.5 µg/mL (≈ 8.27 µM) | 25 µg/mL (≈ 82.7 µM) | 25 µg/mL (≈ 82.7 µM) | 100 µg/mL (≈ 331 µM) | MIC (S. aureus Oxford [16]): 5 µg/mL (≈ 16.5 µM); MIC (P. rettgeri WM 16): > 100 µg/mL; MIC (S. pneumoniae CN 33): 5 µg/mL (≈ 16.5 µM); MIC (S. pyogenes CN 10 [15]): 2.5 µg/mL (≈ 8.27 µM) |
| CC1=C(C(=O)O)N2C(=O)[C@@H](NC(=O)[C@H](N)c3ccccc3)[C@H]2n2nncc21 [Compound 46, (3aR,4S)-4,5-Dihydro-5-oxo-8-methyl-4-D-α-phenylglycylamino-3aH-azeto[1,2-a]v-triazolo[3,4-c]pyrimidine-7-carboxylic acid trifluoroacetic acid salt] | > 100 µg/mL | > 100 µg/mL | > 100 µg/mL | > 100 µg/mL | > 100 µg/mL | > 100 µg/mL | > 100 µg/mL | 100 µg/mL | > 100 µg/mL | > 100 µg/mL | > 100 µg/mL | – | – | – | – | – | – | – | – | – | – |
| CC(=O)OCC1=C(C(=O)O)N2C(=O)[C@@H](NC(=O)Cc3cccs3)[C@H]2n2nncc21 [Compound 57, (3aR,4S) 4,5-Dihydro-5-oxo-8-acetoxymethyl-4-(2-thienylacetamido)-3aH-azeto[1,2-a]v-triazolo[3,4-c]pyrimidine-7-carboxylic acid] | > 100 µg/mL | > 100 µg/mL | > 100 µg/mL | > 100 µg/mL | > 100 µg/mL | > 100 µg/mL | > 100 µg/mL | 100 µg/mL (≈ 240 µM) | > 100 µg/mL | > 100 µg/mL | > 100 µg/mL | – | – | – | – | – | – | – | – | – | MIC (S. pyogenes CN 10 [8]): > 100 µg/mL |
| CC1=C(C(=O)O)N2C(=O)[C@@H](NC(=O)C(F)(F)F)[C@H]2n2nncc21 [Compound 51, (3aR,4S)-4,5-Dihydro-5-oxo-8-methyl-4-trifluoroacetamido 3aH-azeto[1,2-a]v-triazolo[3,4-c]pyrimidine-7-carboxylic acid] | – | – | – | – | – | – | – | – | – | – | – | > 100 µg/mL | > 100 µg/mL | > 100 µg/mL | > 100 µg/mL | 100 µg/mL (≈ 302 µM) | 5 µg/mL (≈ 15.1 µM) | > 100 µg/mL | 100 µg/mL (≈ 302 µM) | > 100 µg/mL | MIC (S. aureus Oxford [16]): > 100 µg/mL; MIC (P. rettgeri WM 16): > 100 µg/mL; MIC (S. pneumoniae CN 33): 50 µg/mL (≈ 151 µM); MIC (S. pyogenes CN 10 [15]): 25 µg/mL (≈ 75.5 µM) |
